Data reported in paper PMC10700596 (Nature Communications, 2023).
Where “and” joins values, the source holds several entries; their conditions need not be identical. Equal entries are not always repeated.

Columns and labels:
Format in all cases: cell-based
320 GPCRs [1] = biological target: 320 GPCRs (Homo sapiens, UniProt P35410)
320 GPCRs [2] = biological target: 320 GPCRs (Homo sapiens, UniProt P22888)
320 GPCRs [3] = biological target: 320 GPCRs (Homo sapiens, UniProt Q7Z7M1)
320 GPCRs [4] = biological target: 320 GPCRs (Homo sapiens, UniProt Q14416)
320 GPCRs [5] = biological target: 320 GPCRs (Homo sapiens, UniProt P30968)
320 GPCRs [6] = biological target: 320 GPCRs (Homo sapiens, UniProt Q9NQS5)
320 GPCRs [7] = biological target: 320 GPCRs (Homo sapiens, UniProt Q15760)
320 GPCRs [8] = biological target: 320 GPCRs (Homo sapiens, UniProt P25021)
320 GPCRs [9] = biological target: 320 GPCRs (Homo sapiens, UniProt P37288)
320 GPCRs [10] = biological target: 320 GPCRs (Homo sapiens, UniProt P32239)
320 GPCRs [11] = biological target: 320 GPCRs (Homo sapiens, UniProt P24530)
320 GPCRs [12] = biological target: 320 GPCRs (Homo sapiens, UniProt P47775)
320 GPCRs [13] = biological target: 320 GPCRs (Homo sapiens, UniProt Q9BZJ7)
320 GPCRs [14] = biological target: 320 GPCRs (Homo sapiens, UniProt Q02643)
320 GPCRs [15] = biological target: 320 GPCRs (Homo sapiens, UniProt Q9NS67)
320 GPCRs [16] = biological target: 320 GPCRs (Homo sapiens, UniProt P34972)
320 GPCRs [17] = biological target: 320 GPCRs (Homo sapiens, UniProt Q8TDV2)
320 GPCRs [18] = biological target: 320 GPCRs (Homo sapiens, UniProt Q16581)
320 GPCRs [19] = biological target: 320 GPCRs (Homo sapiens, UniProt O00254)
320 GPCRs [20] = biological target: 320 GPCRs (Homo sapiens, UniProt Q8TDV0)
320 GPCRs [21] = biological target: 320 GPCRs (Homo sapiens, UniProt P41595)
320 GPCRs [22] = biological target: 320 GPCRs (Homo sapiens, UniProt Q9HBX9)
320 GPCRs [23] = biological target: 320 GPCRs (Homo sapiens, UniProt P32248)
320 GPCRs [24] = biological target: 320 GPCRs (Homo sapiens, UniProt P47871)
320 GPCRs [25] = biological target: 320 GPCRs (Homo sapiens, UniProt P23945)
320 GPCRs [26] = biological target: 320 GPCRs (Homo sapiens, UniProt P18825)
320 GPCRs [27] = test system: 320 GPCRs
320 GPCRs [28] = biological target: 320 GPCRs (Homo sapiens, UniProt Q9BZJ8)
320 GPCRs [29] = biological target: 320 GPCRs (Homo sapiens, UniProt O14842)
320 GPCRs [30] = biological target: 320 GPCRs (Homo sapiens, UniProt P51685)
320 GPCRs [31] = biological target: 320 GPCRs (Homo sapiens, UniProt P48039)
320 GPCRs [32] = biological target: 320 GPCRs (Homo sapiens, UniProt Q03431)
320 GPCRs [33] = biological target: 320 GPCRs (Homo sapiens, UniProt Q9NS66)
320 GPCRs [34] = biological target: 320 GPCRs (Homo sapiens, UniProt P51684)
320 GPCRs [35] = biological target: 320 GPCRs (Homo sapiens, UniProt Q9NPC1)
320 GPCRs [36] = biological target: 320 GPCRs (Homo sapiens, UniProt P49685)
320 GPCRs [37] = biological target: 320 GPCRs (Homo sapiens, UniProt Q8TDU9)
320 GPCRs [38] = biological target: 320 GPCRs (Homo sapiens, UniProt Q96P68)
320 GPCRs [39] = biological target: 320 GPCRs (Homo sapiens, UniProt P13945)
320 GPCRs [40] = biological target: 320 GPCRs (Homo sapiens, UniProt P41968)
320 GPCRs [41] = biological target: 320 GPCRs (Homo sapiens, UniProt Q969N4)
320 GPCRs [42] = biological target: 320 GPCRs (Homo sapiens, UniProt Q16602)
320 GPCRs [43] = biological target: 320 GPCRs (Homo sapiens, UniProt Q86SQ4)

320 GPCRs (Homo sapiens, UniProt Q9NQS5), sequence (Q9NQS5 whole entry): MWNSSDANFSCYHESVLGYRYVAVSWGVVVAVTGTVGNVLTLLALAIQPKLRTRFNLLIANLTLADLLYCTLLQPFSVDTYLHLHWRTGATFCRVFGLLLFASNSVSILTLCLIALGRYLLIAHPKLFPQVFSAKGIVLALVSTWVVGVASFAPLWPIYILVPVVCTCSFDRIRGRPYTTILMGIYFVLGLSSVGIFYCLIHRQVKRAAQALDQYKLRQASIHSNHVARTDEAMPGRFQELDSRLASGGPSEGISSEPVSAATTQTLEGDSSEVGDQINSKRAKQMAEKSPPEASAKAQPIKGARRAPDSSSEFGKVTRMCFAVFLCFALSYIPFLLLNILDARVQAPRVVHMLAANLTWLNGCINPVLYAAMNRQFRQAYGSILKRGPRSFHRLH
320 GPCRs (Homo sapiens, UniProt Q9NS67), sequence (Q9NS67 whole entry): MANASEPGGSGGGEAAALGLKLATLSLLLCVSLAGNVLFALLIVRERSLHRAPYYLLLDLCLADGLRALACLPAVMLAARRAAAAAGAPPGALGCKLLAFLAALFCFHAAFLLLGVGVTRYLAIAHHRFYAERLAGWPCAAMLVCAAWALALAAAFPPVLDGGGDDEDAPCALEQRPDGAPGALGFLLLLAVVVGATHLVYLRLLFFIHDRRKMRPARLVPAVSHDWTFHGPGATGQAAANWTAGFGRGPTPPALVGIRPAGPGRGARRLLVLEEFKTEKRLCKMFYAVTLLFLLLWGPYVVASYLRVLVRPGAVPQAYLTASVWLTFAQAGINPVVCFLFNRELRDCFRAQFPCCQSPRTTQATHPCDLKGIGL
320 GPCRs (Homo sapiens, UniProt O00254), sequence (O00254 22-374): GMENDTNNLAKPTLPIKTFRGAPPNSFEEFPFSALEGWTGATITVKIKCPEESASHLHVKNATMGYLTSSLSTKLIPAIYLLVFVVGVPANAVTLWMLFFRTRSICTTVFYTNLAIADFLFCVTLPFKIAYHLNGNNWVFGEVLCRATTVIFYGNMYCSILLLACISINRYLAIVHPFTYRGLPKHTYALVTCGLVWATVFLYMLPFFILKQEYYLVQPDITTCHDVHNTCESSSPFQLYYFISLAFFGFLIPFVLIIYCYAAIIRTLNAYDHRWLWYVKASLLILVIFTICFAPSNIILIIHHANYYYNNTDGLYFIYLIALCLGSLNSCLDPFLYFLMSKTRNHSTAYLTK
320 GPCRs (Homo sapiens, UniProt Q14416), sequence (Q14416 19-872): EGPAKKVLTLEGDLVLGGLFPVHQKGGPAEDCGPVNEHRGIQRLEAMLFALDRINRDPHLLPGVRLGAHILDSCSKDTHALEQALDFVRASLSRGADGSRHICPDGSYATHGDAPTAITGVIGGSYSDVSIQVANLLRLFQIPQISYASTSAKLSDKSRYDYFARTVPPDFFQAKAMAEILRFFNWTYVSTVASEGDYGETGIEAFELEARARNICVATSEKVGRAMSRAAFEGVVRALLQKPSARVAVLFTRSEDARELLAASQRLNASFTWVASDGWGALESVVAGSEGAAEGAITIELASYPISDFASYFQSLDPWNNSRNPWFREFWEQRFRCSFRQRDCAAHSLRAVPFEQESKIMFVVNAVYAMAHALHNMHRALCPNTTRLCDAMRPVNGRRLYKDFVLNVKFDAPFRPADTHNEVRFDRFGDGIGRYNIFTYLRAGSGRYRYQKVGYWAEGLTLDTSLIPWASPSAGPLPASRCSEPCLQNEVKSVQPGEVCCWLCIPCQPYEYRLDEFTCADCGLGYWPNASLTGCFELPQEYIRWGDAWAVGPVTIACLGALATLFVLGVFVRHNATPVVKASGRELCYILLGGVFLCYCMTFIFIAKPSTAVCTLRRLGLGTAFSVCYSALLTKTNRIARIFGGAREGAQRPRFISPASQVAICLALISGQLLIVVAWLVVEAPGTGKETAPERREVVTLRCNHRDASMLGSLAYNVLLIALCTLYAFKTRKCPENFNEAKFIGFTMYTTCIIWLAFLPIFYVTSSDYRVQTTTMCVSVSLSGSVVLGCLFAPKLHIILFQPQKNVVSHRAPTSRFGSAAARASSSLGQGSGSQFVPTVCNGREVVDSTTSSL
320 GPCRs (Homo sapiens, UniProt Q8TDV0), sequence (Q8TDV0 whole entry): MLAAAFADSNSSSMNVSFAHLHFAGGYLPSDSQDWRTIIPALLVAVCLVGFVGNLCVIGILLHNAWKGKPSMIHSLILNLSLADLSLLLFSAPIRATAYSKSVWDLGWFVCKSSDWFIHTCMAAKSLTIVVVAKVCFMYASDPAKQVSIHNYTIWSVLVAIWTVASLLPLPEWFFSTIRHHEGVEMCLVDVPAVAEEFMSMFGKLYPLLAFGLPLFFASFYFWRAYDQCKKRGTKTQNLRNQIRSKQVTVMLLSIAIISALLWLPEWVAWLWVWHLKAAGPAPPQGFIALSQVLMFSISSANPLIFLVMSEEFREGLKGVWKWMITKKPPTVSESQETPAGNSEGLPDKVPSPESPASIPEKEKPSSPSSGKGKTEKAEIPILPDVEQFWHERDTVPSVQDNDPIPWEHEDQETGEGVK
320 GPCRs (Homo sapiens, UniProt P41595), sequence (P41595 whole entry): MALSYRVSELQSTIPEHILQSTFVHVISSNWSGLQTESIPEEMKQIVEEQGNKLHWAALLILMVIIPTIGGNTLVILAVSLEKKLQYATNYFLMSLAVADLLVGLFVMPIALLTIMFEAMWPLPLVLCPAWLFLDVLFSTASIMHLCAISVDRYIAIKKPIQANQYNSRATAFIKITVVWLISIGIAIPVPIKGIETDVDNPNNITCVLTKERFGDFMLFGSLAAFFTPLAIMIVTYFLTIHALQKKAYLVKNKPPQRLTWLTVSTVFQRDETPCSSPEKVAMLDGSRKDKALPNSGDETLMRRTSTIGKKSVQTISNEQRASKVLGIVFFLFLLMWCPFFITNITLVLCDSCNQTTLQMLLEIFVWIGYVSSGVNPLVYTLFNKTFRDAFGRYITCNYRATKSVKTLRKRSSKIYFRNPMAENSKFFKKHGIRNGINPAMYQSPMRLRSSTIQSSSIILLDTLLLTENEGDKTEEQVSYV
320 GPCRs (Homo sapiens, UniProt Q9BZJ8), sequence (Q9BZJ8 whole entry): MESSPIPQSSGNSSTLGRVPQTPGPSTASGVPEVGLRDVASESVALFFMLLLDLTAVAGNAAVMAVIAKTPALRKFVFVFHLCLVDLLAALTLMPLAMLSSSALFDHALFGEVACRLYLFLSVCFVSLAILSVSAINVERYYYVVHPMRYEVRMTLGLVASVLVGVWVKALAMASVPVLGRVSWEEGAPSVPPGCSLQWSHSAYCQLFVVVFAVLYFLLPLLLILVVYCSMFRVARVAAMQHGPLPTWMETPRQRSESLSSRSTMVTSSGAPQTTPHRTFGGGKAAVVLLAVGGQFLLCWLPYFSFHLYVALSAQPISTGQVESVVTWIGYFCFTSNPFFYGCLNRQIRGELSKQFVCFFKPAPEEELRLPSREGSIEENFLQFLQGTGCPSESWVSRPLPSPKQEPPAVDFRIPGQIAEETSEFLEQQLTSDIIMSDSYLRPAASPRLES
320 GPCRs (Homo sapiens, UniProt Q8TDV2), sequence (Q8TDV2 whole entry): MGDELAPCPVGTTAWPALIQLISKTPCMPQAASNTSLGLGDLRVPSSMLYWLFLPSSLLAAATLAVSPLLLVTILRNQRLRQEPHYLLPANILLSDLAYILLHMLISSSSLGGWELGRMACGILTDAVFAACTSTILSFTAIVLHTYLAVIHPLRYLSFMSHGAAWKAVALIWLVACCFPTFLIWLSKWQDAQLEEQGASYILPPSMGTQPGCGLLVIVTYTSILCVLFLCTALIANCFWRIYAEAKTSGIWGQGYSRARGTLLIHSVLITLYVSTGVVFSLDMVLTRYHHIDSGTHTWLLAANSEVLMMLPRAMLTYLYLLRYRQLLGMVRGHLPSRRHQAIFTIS
320 GPCRs (Homo sapiens, UniProt P24530), sequence (P24530 27-442): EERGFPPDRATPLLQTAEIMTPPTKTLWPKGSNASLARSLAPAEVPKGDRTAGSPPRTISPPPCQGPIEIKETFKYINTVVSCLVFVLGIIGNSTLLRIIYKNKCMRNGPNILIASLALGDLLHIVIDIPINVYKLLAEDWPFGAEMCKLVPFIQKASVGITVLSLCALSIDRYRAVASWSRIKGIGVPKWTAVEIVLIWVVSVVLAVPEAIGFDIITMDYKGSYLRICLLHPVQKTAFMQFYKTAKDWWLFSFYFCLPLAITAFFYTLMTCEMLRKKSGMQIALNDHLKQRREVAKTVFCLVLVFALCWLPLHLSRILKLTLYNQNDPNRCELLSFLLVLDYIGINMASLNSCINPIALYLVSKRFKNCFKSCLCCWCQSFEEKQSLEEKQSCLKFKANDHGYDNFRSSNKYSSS
320 GPCRs (Homo sapiens, UniProt Q16602), sequence (Q16602 23-461): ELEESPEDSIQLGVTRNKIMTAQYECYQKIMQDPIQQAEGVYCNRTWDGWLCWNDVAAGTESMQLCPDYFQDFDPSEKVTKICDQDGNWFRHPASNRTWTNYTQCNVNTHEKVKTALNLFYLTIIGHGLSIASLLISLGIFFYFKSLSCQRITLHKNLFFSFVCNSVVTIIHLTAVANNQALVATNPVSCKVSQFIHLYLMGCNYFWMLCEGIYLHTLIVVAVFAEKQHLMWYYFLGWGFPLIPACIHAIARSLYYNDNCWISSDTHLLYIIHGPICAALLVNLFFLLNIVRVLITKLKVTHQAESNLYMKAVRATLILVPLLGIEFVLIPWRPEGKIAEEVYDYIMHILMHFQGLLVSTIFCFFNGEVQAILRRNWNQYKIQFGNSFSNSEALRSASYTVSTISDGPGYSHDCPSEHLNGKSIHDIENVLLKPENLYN
320 GPCRs (Homo sapiens, UniProt P51684), sequence (P51684 whole entry): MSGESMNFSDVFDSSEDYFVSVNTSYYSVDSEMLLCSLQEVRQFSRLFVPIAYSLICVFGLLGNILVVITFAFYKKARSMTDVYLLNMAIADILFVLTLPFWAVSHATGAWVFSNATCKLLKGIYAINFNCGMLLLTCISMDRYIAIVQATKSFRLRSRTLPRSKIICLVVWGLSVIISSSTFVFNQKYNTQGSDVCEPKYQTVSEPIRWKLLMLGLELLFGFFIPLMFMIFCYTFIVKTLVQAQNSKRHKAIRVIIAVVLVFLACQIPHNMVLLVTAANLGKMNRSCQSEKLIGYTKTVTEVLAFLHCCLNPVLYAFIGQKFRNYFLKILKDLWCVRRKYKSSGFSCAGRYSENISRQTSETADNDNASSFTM

## O=C(O)C1CCC2(CC1)CC(Nc1ncnc3[nH]c4c(F)cccc4c13)C2 (stereo not shown) [Compound 74, OC(=O)C1CCC2(CC(C2)NC=3N=CN=C4NC=5C(F)=CC=CC5C34)CC1]
320 GPCRs [1]
  RLU (Fold over Basal): 0.7 Fold over Basal and 1 Fold over Basal and 0.9 Fold over Basal and 0.6 Fold over Basal
320 GPCRs [2]
  RLU (Fold over Basal): 1.7 Fold over Basal and 1.8 Fold over Basal and 1.4 Fold over Basal
320 GPCRs [3]
  RLU (Fold over Basal): 1.3 Fold over Basal and 0.7 Fold over Basal
320 GPCRs [4]
  RLU (Fold over Basal): 1 Fold over Basal and 1.1 Fold over Basal and 0.9 Fold over Basal
320 GPCRs [5]
  RLU (Fold over Basal): 1 Fold over Basal and 0.5 Fold over Basal and 0.6 Fold over Basal
320 GPCRs [6]
  RLU (Fold over Basal): 1 Fold over Basal and 0.8 Fold over Basal and 1.1 Fold over Basal
320 GPCRs [7]
  RLU (Fold over Basal): 1 Fold over Basal and 1.3 Fold over Basal and 0.9 Fold over Basal and 1.8 Fold over Basal
320 GPCRs [8]
  RLU (Fold over Basal): 1 Fold over Basal and 1.4 Fold over Basal
320 GPCRs [9]
  RLU (Fold over Basal): 0.7 Fold over Basal and 1.1 Fold over Basal
320 GPCRs [10]
  RLU (Fold over Basal): 0.9 Fold over Basal and 1.1 Fold over Basal and 0.8 Fold over Basal
320 GPCRs [11]
  RLU (Fold over Basal): 1.2 Fold over Basal and 0.6 Fold over Basal and 0.8 Fold over Basal and 0.9 Fold over Basal
320 GPCRs [12]
  RLU (Fold over Basal): 0.6 Fold over Basal and 1 Fold over Basal
320 GPCRs [13]
  RLU (Fold over Basal): 0.6 Fold over Basal and 0.5 Fold over Basal and 0.8 Fold over Basal
320 GPCRs [14]
  RLU (Fold over Basal): 0.7 Fold over Basal and 0.6 Fold over Basal and 0.8 Fold over Basal
320 GPCRs [15]
  RLU (Fold over Basal): 0.4 Fold over Basal and 0.7 Fold over Basal and 0.8 Fold over Basal and 0.6 Fold over Basal
320 GPCRs [16]
  RLU (Fold over Basal): 2.1 Fold over Basal and 1.3 Fold over Basal and 1.7 Fold over Basal and 1.5 Fold over Basal
320 GPCRs [17]
  RLU (Fold over Basal): 0.8 Fold over Basal and 0.5 Fold over Basal and 1 Fold over Basal
320 GPCRs [18]
  RLU (Fold over Basal): 1.2 Fold over Basal and 1.3 Fold over Basal and 0.8 Fold over Basal and 1 Fold over Basal
320 GPCRs [19]
  RLU (Fold over Basal): 2 Fold over Basal and 1.8 Fold over Basal and 3 Fold over Basal and 2.4 Fold over Basal
320 GPCRs [20]
  RLU (Fold over Basal): 0.9 Fold over Basal and 0.8 Fold over Basal and 1.1 Fold over Basal
320 GPCRs [21]
  RLU (Fold over Basal): 0.8 Fold over Basal and 0.9 Fold over Basal and 0.7 Fold over Basal and 1 Fold over Basal
320 GPCRs [22]
  RLU (Fold over Basal): 0.7 Fold over Basal and 0.9 Fold over Basal and 0.5 Fold over Basal
320 GPCRs [23]
  RLU (Fold over Basal): 1 Fold over Basal and 0.9 Fold over Basal
320 GPCRs [24]
  RLU (Fold over Basal): 1 Fold over Basal and 0.5 Fold over Basal and 0.8 Fold over Basal
320 GPCRs [25]
  RLU (Fold over Basal): 1 Fold over Basal and 0.6 Fold over Basal
320 GPCRs [26]
  RLU (Fold over Basal): 0.6 Fold over Basal and 0.8 Fold over Basal
320 GPCRs [27]
  agonist activity in GPCR panel: no agonist activity
320 GPCRs [28]
  RLU (Fold over Basal): 0.8 Fold over Basal and 1.4 Fold over Basal and 1 Fold over Basal and 1.1 Fold over Basal
320 GPCRs [29]
  RLU (Fold over Basal): 1.6 Fold over Basal and 0.9 Fold over Basal
320 GPCRs [30]
  RLU (Fold over Basal): 1.6 Fold over Basal and 1.2 Fold over Basal and 0.8 Fold over Basal and 1.5 Fold over Basal
320 GPCRs [31]
  RLU (Fold over Basal): 0.9 Fold over Basal and 0.8 Fold over Basal
320 GPCRs [32]
  RLU (Fold over Basal): 1.2 Fold over Basal and 1.1 Fold over Basal and 1.4 Fold over Basal
320 GPCRs [33]
  RLU (Fold over Basal): 1.1 Fold over Basal and 1.2 Fold over Basal and 1 Fold over Basal and 0.6 Fold over Basal
320 GPCRs [34]
  RLU (Fold over Basal): 0.7 Fold over Basal and 1 Fold over Basal and 0.9 Fold over Basal
320 GPCRs [35]
  RLU (Fold over Basal): 0.9 Fold over Basal and 1.5 Fold over Basal and 0.8 Fold over Basal and 1.3 Fold over Basal
320 GPCRs [36]
  RLU (Fold over Basal): 0.4 Fold over Basal and 0.5 Fold over Basal and 0.6 Fold over Basal and 0.7 Fold over Basal
320 GPCRs [37]
  RLU (Fold over Basal): 1.1 Fold over Basal and 0.6 Fold over Basal and 0.7 Fold over Basal
320 GPCRs [38]
  RLU (Fold over Basal): 0.3 Fold over Basal
320 GPCRs [39]
  RLU (Fold over Basal): 1.4 Fold over Basal and 1.2 Fold over Basal and 1.1 Fold over Basal and 1.3 Fold over Basal
320 GPCRs [40]
  RLU (Fold over Basal): 0.5 Fold over Basal and 1 Fold over Basal and 0.7 Fold over Basal and 0.8 Fold over Basal
320 GPCRs [41]
  RLU (Fold over Basal): 0.7 Fold over Basal and 0.5 Fold over Basal
320 GPCRs [42]
  RLU (Fold over Basal): 0.9 Fold over Basal and 1.2 Fold over Basal and 1.4 Fold over Basal and 1.1 Fold over Basal
320 GPCRs [43]
  RLU (Fold over Basal): 1 Fold over Basal and 1.1 Fold over Basal and 0.9 Fold over Basal and 1.5 Fold over Basal
